Reference: patent US10287305B2, “Substituted piperidine compound and use thereof” (Takeda Pharmaceutical Company Limited, priority 2016, dated 2019)
pEC50: −log10 of the molar value.

Columns and labels:
human OX2 receptor = human OX2 receptor (Homo sapiens (Human), UniProt O43614); test: Measurement of orexin type 2 receptor agonist activity (Experimental Example 2-2, FDSS uCELL, calcium indicator); type: cell-based; settings: CHO cells expressing human OX2 receptor; for pEC50: Fluo-4 AM; for Emax: CHO
Procedure: CHO cells forcibly expressing human OX2 receptor were seeded in each well of 384 well black transparent bottom plate (BD Falcon) at 7,500 cells/well, and cultured for one day in a 5% CO2 incubator at 37° C. […] The plate was stood for 30 min in a 5% CO2 incubator at 37° C., and further stood at room temperature for 30 min. A test compound prepared by diluting with assay buffer B (HESS, 20 mM HEPES, 0.1% BSA) was added at 10 μL/well, and the fluorescence value was measured by FDSSμCELL (Hamamatsu Photonics K.K.) every one sec for 1 min, and thereafter every two sec for 1 min sec.

[1] = biological target: human orexin type 2 receptor (hOX2R) (Homo sapiens (Human), UniProt O43614); test: Measurement of orexin type 2 receptor agonist activity (Experimental Example 2-1, FLIPR TETRA, intracellular Ca2+); type: cell-based; settings: CHO dhfr- cells expressing hOX2R; for Emax at 30 µM: value at 30 uM concentration, orexin B as full agonist = 100%
C57BL/6J mice = test: Measurement of locomotor activity in mice (Experimental Example 3); type: in vivo, mouse; settings: male C57BL/6J mice; 30 mg/kg intraperitoneal; measured for 2 hr after administration
Procedure: Increased locomotor activity is one of the indexes of arousal action together with increase in wakefulness time, increase in body temperature, enhancement of cardiovascular system parameters and the like. In this Experimental Example, the arousal action effective for the treatment of narcolepsy was evaluated by measuring the locomotor activity of mouse. Male C57BL/6J mice (6-10 weeks old, Japan CLEA) were used for the measurement of locomotor activity (8 mice each group), infrared rays were irradiated from the top part of the cage, and a locomotor activity measuring device (MDC system—Neurosciences Idea) capable of quantifying the number of times the mice pass through the irradiated rays was used. To be specific, the mice were placed in the cage of the device and acclimatized for 4 hours or longer, and a test compound was intraperitoneally administered (dose: 30 mg/kg body weight). The locomotor activity was measured for 2 hr after the administration. In the test compound group, a solution obtained by dissolving the test compound in a solvent (composition: 10% DMSO, 10% Cremophor EL (trade name), 20% polyethylene glycol 400 (20% PEG400, 60% H2O)) was administered to mice. On the other hand, in the control group, only the aforementioned solvent not containing the test compound was administered to mice.

[2] = DMSO = 0%, reference OX-A at 10 nM
[3] = agonist activity, 10 nM human orexin B = 100%

Sequence of human OX2 receptor (O43614 whole entry): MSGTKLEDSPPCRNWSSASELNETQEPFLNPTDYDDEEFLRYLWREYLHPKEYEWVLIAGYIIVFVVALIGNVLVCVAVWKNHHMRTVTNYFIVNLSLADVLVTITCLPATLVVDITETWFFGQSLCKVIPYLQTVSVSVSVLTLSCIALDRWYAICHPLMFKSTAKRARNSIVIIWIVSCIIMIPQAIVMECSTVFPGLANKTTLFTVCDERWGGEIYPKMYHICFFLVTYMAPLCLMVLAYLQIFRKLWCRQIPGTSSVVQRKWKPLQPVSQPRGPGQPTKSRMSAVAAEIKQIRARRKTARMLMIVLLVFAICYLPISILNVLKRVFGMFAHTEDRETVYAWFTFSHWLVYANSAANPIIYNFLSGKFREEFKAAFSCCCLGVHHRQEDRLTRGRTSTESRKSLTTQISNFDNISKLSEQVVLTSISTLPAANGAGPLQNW
Sequence of human orexin type 2 receptor (hOX2R) (O43614 whole entry): as above

Row | SMILES | pEC50 (human OX2 receptor) | Emax (human OX2 receptor; [2]) | pEC50 [1, 3] | Emax at 30 µM [1] | locomotor activity (counts) (mean ± S.E.M., n = 8) (C57BL/6J mice) | further results
1 | CC(OC(=O)N1CCC[C@H](NS(=O)(=O)C2CC2)[C@@H]1COC1CCN(c2ncccn2)CC1)C(F)(F)F (relative stereo) [Example 362, 1,1,1-trifluoropropan-2-yl cis-3-((cyclopropylsulfonyl)amino)-2-(((1-(pyrimidin-2-yl)piperidin-4-yl)oxy)methyl)piperidine-1-carboxylate] | 6.41 | 95% | – | – | – | –
2 | CCNC(=O)N1CCC[C@H](NS(C)(=O)=O)[C@@H]1CO[C@H]1CC[C@@H](C(C)C)CC1 [Example 2, (2R,3S)—N-ethyl-2-(((cis-4-isopropylcyclohexyl)oxy)methyl)-3-((methylsulfonyl)amino)piperidine-1-carboxamide] | – | – | 8.72 | 99% | 817.00 counts | –
3 | COC(=O)N1CCC[C@H](NS(C)(=O)=O)[C@@H]1CO[C@H]1CC[C@@H](c2ccccc2)CC1 [Example 5, Methyl (2R,3S)-3-((methylsulfonyl)amino)-2-(((cis-4-phenylcyclohexyl)oxy)methyl)piperidine-1-carboxylate] | – | – | 8.66 | 98% | 1175.25 counts | –
4 | CS(=O)(=O)N[C@H]1CCCN(C(=O)CO)[C@H]1CO[C@H]1CC[C@@H](c2c(F)ccc(F)c2F)CC1 [Example 340, N-((2R,3S)-1-glycoloyl-2-(((cis-4-(2,3,6-trifluorophenyl)cyclohexyl)oxy)methyl)piperidin-3-yl)methanesulfonamide] | – | – | – | – | 979.25 ± 109.96 counts | pEC50 ([1]; FLIPR TETRA, Fluo-4AM): 8.60; Emax ([1]; FLIPR TETRA, Fluo-4AM, read-out: Emax (%)): 109%
5 | COC(=O)N1CCC[C@H](NS(C)(=O)=O)[C@@H]1CO[C@H]1CC[C@@H](c2ccc(O)cc2)CC1 [Example 348, methyl (2R,3S)-2-(((cis-4-(4-hydroxyphenyl)cyclohexyl)oxy)-methyl)-3-((methylsulfonyl)amino)piperidine-1-carboxylate] | 8.02 | – | – | – | – | Emax (%) (human OX2 receptor; [2]): 92%
6 | CCNC(=O)N1CCC[C@H](NS(C)(=O)=O)[C@@H]1CO[C@H]1CCC[C@@H]1Oc1ccccc1 [Example 350, cis-N-ethyl-3-((methylsulfonyl)amino)-2-((((1S,2S)-2-phenoxycyclopentyl)oxy)methyl)-piperidine-1-carboxamide] | 5.80 | 116% | – | – | – | –
